From patent US6287840A (Axys Pharmaceuticals, Inc., priority 1999, dated 2001)
Read-outs that look alike come from different tables or passages of the source.

What was measured:
T. cruzi = T. cruzi infected irradiated J774 cells; format: cell-based; design: dose or concentration left out as unconfirmed; conditions: thereafter without inhibitor; compounds listed in decreasing order of effectiveness
Protocol: Irradiated J774 cells were infected with T. cruzi and simultaneously treated with […] of peptidyl vinyl derivatives for 5 days; thereafter without inhibitor. The following compounds were effective in decreasing order: Mu-Phe-ArgVSPh, Boc-Tyr(I2)-HphVSPh, Mu-Phe-VaIVSPh, Boc-Tic-HphVSPh, Mu-Phe-Ser(OBzl)VSPh, Mu-Leu-HphVSPh, Mu-Tyr(I2)-HphVSPh, Mu-Phe-LysVSPh, Mu-Tic-HphVSPh.

[1] = test system: Trypanosoma brucei extracellular bloodstream forms; assay: In vitro antiprotozoal activity, Trypanosoma brucei; format: cell-based
Protocol: (§1) In this table, the in vitro antiprotozoal activities of the indicated compounds were measured as percentage inhibition of Leishmania donovani amastigote infecteda mouse peritoneal macrophages, Trypanosoma cruzi amastigote infected macrophages, and Trypanosoma brucei extracellular bloodstream forms.

cruzain, from T. cruzi = cruzain, from T. cruzi (Trypanosoma cruzi, UniProt P25779); assay: Inhibition of cruzain, as for cathepsin L; format: biochemical; conditions: for k/KI (kirr/KI): values without asterisk; for kobs /[I]* (approximate second-order inactivation constant): values marked *
Chain of cruzain, from T. cruzi (P25779 123-337 limits assumed): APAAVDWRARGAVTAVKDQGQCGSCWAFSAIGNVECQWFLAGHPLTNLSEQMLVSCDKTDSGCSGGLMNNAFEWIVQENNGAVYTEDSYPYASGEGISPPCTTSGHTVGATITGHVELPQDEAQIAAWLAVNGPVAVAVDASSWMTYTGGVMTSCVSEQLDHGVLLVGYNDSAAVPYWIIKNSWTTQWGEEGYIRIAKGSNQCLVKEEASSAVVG
Procedure, shortened: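 Run as for cathepsin L with 1 nM cruzain in 50 mM phosphate pH […], 2.5 mM DTT, 2.5 mM EDTA, 5 μM Z-Phe-Arg-AMC, at 25 °C, inhibitors 30-0.001 μM; fluorescence (ex 380/em 460 nm) followed continuously. kobs fitted from progress curves and kobs/[I] reported; selected compounds gave kirr, KI, kirr/KI, with KI corrected by (1+[S]/Km).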

Cloned cathepsin S = target: T1, Cloned cathepsin S (Homo sapiens, UniProt P25774); assay: Inhibition of cathepsin S, Z-Val-Val-Arg-AMC fluorescence progress curves; format: biochemical; conditions: for Ki: corrected for substrate; for k/KI (kirr/KI): values without asterisk; for k/KI (kirr/KI) / kobs /[I]* (approximate second-order inactivation constant): 25° C., pH 6.5; for kobs /[I]* (approximate second-order inactivation constant): values marked *
T1 construct: made in house
T1 sequence (P25774 115-331): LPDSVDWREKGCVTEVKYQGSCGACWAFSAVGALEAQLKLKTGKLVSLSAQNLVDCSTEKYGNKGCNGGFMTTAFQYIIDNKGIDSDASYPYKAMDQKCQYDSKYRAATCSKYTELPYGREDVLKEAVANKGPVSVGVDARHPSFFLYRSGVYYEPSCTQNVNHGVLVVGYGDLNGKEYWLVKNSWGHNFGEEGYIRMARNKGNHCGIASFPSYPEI
Procedure, shortened: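 Progress curves at 25 °C in 100 mM phosphate pH 6.5, 2.5 mM DTT, 2.5 mM EDTA, 0.01% Triton, enzyme <1 nM, 10 μM substrate, inhibitors 30-0.001 μM; AMC fluorescence ex 380/em 460 nm. kobs from nonlinear fits gave kobs/[I]; selected compounds yielded kirr, KI (substrate-corrected), kirr/KI.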

[2] = test system: human malarial parasite Plasmodium falciparum; assay: In vitro protease activity of malarial parasite, substrate Z-Phe-Arg-AMC; format: biochemical; conditions: read-out: P. falciparum IC50 (human)
Text: (§2) The following table summarizes the comparative IC50 values for selected cysteine protease inhibitors against the human malarial parasite Plasmodium falciparum and the mouse malarial parasite Plasmodium vinckei. The substrate used to measure in vitro protease activity was Z-Phe-Arg-AMC.

[3] = test system: mouse malarial parasite Plasmodium vinckei; assay: as above; format: biochemical; conditions: read-out: P. vinckei IC50 (murine)
Text: as §2

[4] = target: T2, Cathepsin L from rat liver (Rattus norvegicus, UniProt P07154); assay: Inhibition of cathepsin L, Z-Phe-Arg-AMC fluorescence progress curves; format: biochemical; conditions: for Ki: corrected for substrate; for k/KI (kirr/KI): values without asterisk; for k/KI (kirr/KI) / kobs /[I]* (approximate second-order inactivation constant): 25° C., pH 6.2; for kobs /[I]* (approximate second-order inactivation constant): values marked *
T2 construct: Cathepsin L from rat liver; from tissue; host or cells: rat liver
T2 sequence (P07154 114-288 limits assumed): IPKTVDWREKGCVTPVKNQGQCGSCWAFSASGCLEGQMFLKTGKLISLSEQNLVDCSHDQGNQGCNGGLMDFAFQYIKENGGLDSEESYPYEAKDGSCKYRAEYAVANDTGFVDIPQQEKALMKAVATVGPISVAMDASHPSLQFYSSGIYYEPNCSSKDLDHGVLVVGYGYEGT
T2 sequence (P07154 291-334 limits assumed): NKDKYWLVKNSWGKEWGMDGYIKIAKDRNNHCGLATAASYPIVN
Procedure, shortened: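 Progress curves of AMC release (380/460 nm) over at least 3 inactivation half-times were fitted to kobs, reported as kobs/[I] or, via 1/[I] vs 1/kobs, kirr, KI (substrate-corrected) and kirr/KI.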

[5] = test system: Leishmania donovani amastigote infected mouse peritoneal macrophages; assay: In vitro antiprotozoal activity, Leishmania donovani; format: cell-based; design: key to percentage inhibition, L. donovani: the term "T" indicates the molecule to have displayed cytotoxicity
Protocol: as §1

calpain = assay: Inhibition (inactivation) of calpain, Suc-Leu-Tyr-AMC; format: biochemical; conditions: pH 7.5, 5 mM CaCl2, 25° C.; for kobs /[I]*: values marked * (or %); for k/KI (kirr/KI): values without asterisk
Protocol: The inhibitors were tested against calpain at 1 or 2% as for the other enzymes. The reaction conditions were 50 mM Tris, pH 7.5, 5 mM CaCl2, 2.5 mM DTT, assayed at 25° C. The substrate was 100 μM Suc-Leu-Tyr-AMC.

[6] = test system: Trypanosoma cruzi amastigote infected macrophages; assay: In vitro antiprotozoal activity, Trypanosoma cruzi; format: cell-based
Protocol: as §1

[7] = target: T3, Cathepsin B from human placenta (Homo sapiens, UniProt P07858); assay: Inhibition of cathepsin B, Z-Arg-Arg-AMC fluorescence progress curves; format: biochemical; conditions: for Ki: corrected for substrate; for k/KI (kirr/KI): values without asterisk
T3 construct: Cathepsin B from human placenta, obtained from Sigma; purchased Sigma; host or cells: human placenta (tissue)
Procedure, shortened: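 Human placental enzyme (~10 nM) in 50 mM phosphate pH 6.2 with 2.5 mM DTT and 2.5 mM EDTA, 50 μM Z-Arg-Arg-AMC, inhibitors 30-0.001 μM, 25° C. AMC fluorescence (ex 380/em 460 nm) progress curves fitted for kobs; kobs/[I] reported, with kirr, KI and kirr/KI substrate-corrected for selected compounds.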

Compound	effectiveness against T. cruzi in J774 cells (T. cruzi)	percentage inhibition, T. brucei ([1]; 3 uM)	percentage inhibition, T. brucei ([1]; 10 uM)	percentage inhibition, T. brucei ([1]; 30 uM)	percentage inhibition, T. brucei ([1]; 90 uM)	k/KI (kirr/KI) (cruzain, from T. cruzi)	kirr (Cloned cathepsin S)	Ki (Cloned cathepsin S)	k/KI (kirr/KI) (Cloned cathepsin S)	kirr [4]	Ki [4]	k/KI (kirr/KI) [4]	percentage inhibition, L. donovani ([5]; 3 uM)	percentage inhibition, L. donovani ([5]; 10 uM)	percentage inhibition, L. donovani ([5]; 30 uM)	percentage inhibition, L. donovani ([5]; 90 uM)	kobs /[I]* (calpain)	percentage inhibition, T. cruzi ([6]; 3 uM)	percentage inhibition, T. cruzi ([6]; 10 uM)	percentage inhibition, T. cruzi ([6]; 30 uM)	also measured
Br.N=C(N)NCCC[C@@H](/C=C/S(=O)(=O)c1ccccc1)NC(=O)[C@H](Cc1ccccc1)NC(=O)N1CCOCC1 [Mu-Phe-ArgVSPh.HBr, (S)-(E)-3-(4-morpholinecarbonylphenylalanyl)amino-6-guanidino-1-phenylsulfonyl-1-hexene hydrobromide]	effective	0%	0%	0%	0%	91,400 M^-1 sec^-1	0.031 s⁻¹	16 nM	2,000,000 M^-1 sec^-1	0.67 s⁻¹	1900 nM	349,000 M^-1 sec^-1	0%	0%	0%	1.3%	< 50 M⁻¹ s⁻¹	0%	0%	0%	IC50 ([2]; cells printed in nM): 50 nM; IC50 ([3]; cells printed in nM): 50 nM; percentage inhibition, T. cruzi ([6]; 90 uM): 5.8%; kirr [7]: 0.15 s⁻¹; Ki [7]: 12000 nM; k/KI (kirr/KI) ([7]; 25° C., pH 6.2): 12,300 M^-1 sec^-1
(S)-(E)-3-(4-morpholinecarbonylphenylalanyl)amino-4-benzyloxy-1-phenylsulfonyl-1-butene [Mu-Phe-Ser(OBzl)VSPh]	effective	11.5%	93.3%	1.00%	100%	12,800 M^-1 sec^-1	0.092 s⁻¹	74 nM	1,240,000 M^-1 sec^-1	0.20 s⁻¹	4600 nM	42,700 M^-1 sec^-1	100%	100%	100%	T	< 50 M⁻¹ s⁻¹	5.2%	15.7%	15.1%	percentage inhibition, T. brucei ([1]; 1 uM): 5.2%; IC50 ([2]; cells printed in μM): 1000 nM; IC50 ([3]; cells printed in nM): 500 nM; percentage inhibition, T. cruzi ([6]; 90 uM): 50.7%; kirr [7]: 0.14 s⁻¹; Ki [7]: 47000 nM; k/KI (kirr/KI) ([7]; 25° C., pH 6.2): 2900 M⁻¹ s⁻¹
(S)-(E)-3-(4-morpholinecarbonylphenylalanyl)amino-4-methyl-1-phenylsulfonyl-1-pentene [Mu-Phe-ValVSPh]	effective	13.5%	35.4%	72.7%	100%	–	0.039 s⁻¹	130 nM	290,000 M^-1 sec^-1	0.19 s⁻¹	2600 nM	74,000 M^-1 sec^-1	100%	100%	100%	T	180 M⁻¹ s⁻¹	5.5%	6.2%	18.9%	ED50, T. brucei [1]: 13850 nM; percentage inhibition, T. brucei ([1]; 1 uM): 11.9%; kobs /[I]* (approximate second-order inactivation constant) (cruzain, from T. cruzi): 28,000 M^-1 sec^-1; IC50 ([2]; cells printed in μM): 1000 nM; IC50 ([3]; cells printed in μM): 1000 nM; ED50, T. cruzi [6]: 61880 nM; percentage inhibition, T. cruzi ([6]; 90 uM): 74.2%
(S,S)-(E)-3-[4-morpholinecarbonyl-(1,2,3,4-tetrahydro-3-isoquinoline-carbonyl)]amino-5-phenyl-1-phenylsulfonyl-1-pentene [Mu-Tic-HphVSPh]	effective	–	–	–	–	0 M⁻¹ s⁻¹	–	–	–	–	–	–	–	–	–	–	–	–	–	–	kobs /[I]* (approximate second-order inactivation constant) (Cloned cathepsin S): 630,000 M^-1 sec^-1; kobs /[I]* (approximate second-order inactivation constant) [4]: 12,600 M^-1 sec^-1; k/KI (kirr/KI) (calpain): 0 M⁻¹ s⁻¹; k/KI (kirr/KI) ([7]; 25° C., pH 6.2): 0 M⁻¹ s⁻¹
(S)-(E)-3-[4-tert-butoxycarbonyl-(3,5-diiodotyrosyl)]-amino-5-phenyl-1-phenylsulfonyl-1-pentene [Boc-Tyr(I2)-HphVSPh]	effective	–	–	–	–	–	–	–	–	–	–	–	–	–	–	–	–	–	–	–	kobs /[I]* (approximate second-order inactivation constant) (cruzain, from T. cruzi): 280,000 M^-1 sec^-1; kobs /[I]* (approximate second-order inactivation constant) (Cloned cathepsin S): 210,000 M^-1 sec^-1; kobs /[I]* (approximate second-order inactivation constant) [4]: 105,000 M^-1 sec^-1; k/KI (kirr/KI) (calpain): 0 M⁻¹ s⁻¹; kobs /[I]* (approximate second-order inactivation constant) ([7]; values marked *, 25° C., pH 6.2): 1400 M⁻¹ s⁻¹
(S,S)-(E)-3-[tert-butoxycarbonyl-(1,2,3,4-tetrahydro-3-isoquinolinecarbonyl)]-amino-5-phenyl-1-phenylsulfonyl-1-pentene [Boc-Tic-HphVSPh]	effective	–	–	–	–	30,000 M^-1 sec^-1	–	–	0 M⁻¹ s⁻¹	–	–	0 M⁻¹ s⁻¹	–	–	–	–	–	–	–	–	k/KI (kirr/KI) (calpain): 0 M⁻¹ s⁻¹
